Here are results for seven molecules from publication PMC9645344, “Serotonin-releasing agents with reduced off-target effects” (Molecular Psychiatry, 2022).

Experiment [1] has as its system extracellular 5-HT in the NAc. As to the kind of experiment: Fiber photometry with GRAB5-HT sensor in the NAc of freely moving mice. It counts as in vivo. The following applies: for extracellular 5-HT in the NAc (GRAB5-HT fluorescence): 10 mg kg-1 intraperitoneal. The protocol:
(§1) All in vivo experiments were performed in adult mice (>6 weeks old). For the photometry and microdialysis experiments, which were carried out in Florida, male C57BL/6J mice from The Jackson Laboratory (Bar Harbor, ME, USA) were group-housed in polycarbonate cages (GM500, Tecniplast, Buguggiate, Italy) with lights on from 7 a.m. to 7 p.m. Food and water were provided ad libitum. Photometry and microdialysis experiments were performed in accordance with a protocol approved by the Institutional Animal Care and Use Committee at Florida Atlantic University. For the behavioral experiments, which were carried out in Vienna, C57BL/6N mice from Charles River (Sulzfeld, Germany) were group-housed in polycarbonate cages with lights on from 7 a.m. to 7 p.m. Food and water were provided ad libitum. Behavioral experiments were performed in accordance with a protocol approved by the Austrian national ethical committee on animal care and use (Bundesministerium für Wissenschaft und Forschung: BMWFW-66.009/0016-WF/V/3b/2015). All animal procedures were conducted in agreement with the ARRIVE guidelines and the U.K. Animal (Scientific Procedures) Act, 1986, and associated guidelines, EU Directive 2010/63/EU for animal experiments. Mice were given at least 1 week to acclimate before being used in any experiments.
Mice were anesthetized with isoflurane (5% induction, 2% maintenance) and placed into a stereotaxic frame (Kopf Instruments, Tujunga, CA, USA) oriented in the flat skull position. Ophthalmic ointment was applied to prevent drying of the eyes. Ketoprofen (10 mg kg^−1) was administered subcutaneously (s.c.), whereas bupivacaine and lidocaine were administered locally (s.c.; 100 µl of sterile saline containing 0.05% bupivacaine and 0.2% lidocaine) to the surgical site atop the head. A midline incision was made through the skin on the dorsal surface of the head to expose the skull. Fascia was removed, coordinates for the NAc were determined relative to bregma: anterior/posterior = 1.54 mm; medial/lateral = 0.7 mm; dorsal/ventral = −4.1 mm. A 1 mm burr hole was drilled through the skull. […] For the mice used for fiber photometry, 4*10^12 genome copies of AAV9-hSyn-5-HT2h or 10^10 genome copies of AAV-hSyn-DA2m were delivered into the NAc at an infusion rate of 100 nl min^−1 (total volume of 1 µl) using a 34-gauge needle attached to a 10 µl Nanofil microsyringe (Hamilton, Reno, NV, USA), as previously described. Following injection of the virus, an optical fiber was lowered through the burr hole and secured with glass ionomer cement. Three 1.6 mm screws (00-96X1/16 39052, Plastics One Inc., Roanoke, VA, USA) were affixed to the skull to support a cement stage that was created to secure the implanted guide cannulae or optical fiber. Mice were singly housed following surgery and allowed 6 days of recovery for the microdialysis experiments or 21 days for the photometry experiments. Food and water were available ad libitum.
To monitor light emitted from the G-protein coupled receptor-activation-based 5-HT (GRAB5-HT) and DA (GRABDA) sensors, fiber photometry was performed as described. Briefly, a light emitting diode (465 nm) (CLED_465, Doric Lenses, Quebec, QC, Canada), reflected through a dichroic mirror, was coupled to an optical fiber (200 µm core/225 cladding diameter; Thorlabs, Newton, NJ, USA) that was glued to a metal ferrule (Doric Lenses, Quebec, QC, Canada) and implanted into the NAc as described above. Emitted, band-pass filtered light (500–550 nm, FMC6, Doric Lenses, Quebec,QC, Canada) was detected with a photodetector (Newport Femtowatt silicone PIN; New Focus, San Jose, CA, USA). Data were recorded using a RZ5P lock-in amplifier (Tucker-Davis Technologies, Alachua, FL, USA) controlled with Synapse software. Sinusoidal excitation was delivered at 210 Hz by an LED driver Doric Lenses, LEDD_4) at low power mode. A demodulated signal was low-pass filtered at 6 Hz and digitized at 1017 Hz. […]

Another experiment concerns the target T1, human DAT (Homo sapiens, UniProt Q01959).
T1 construct: expressed in transfected cells
The experiment in a line: DAT uptake inhibition assay in HEK293 cells ([3H]MPP+). The experiment is classed as cell-based. The conditions noted are these: for DAT/SERT ratio: (1/DAT IC50)/(1/SERT IC50), higher values indicate higher DAT-selectivity. On the procedure:
(§2) Human embryonic kidney 293 (HEK293) cells stably expressing the human isoforms of either DAT or SERT were maintained in Dulbecco’s Modified Eagle Medium (DMEM), supplemented with 10% fetal calf serum at a subconfluent state in humidified atmosphere (5% CO2, 37 °C).
(§3) Uptake inhibition assays were performed as described earlier. Briefly, HEK293 cells stably expressing human SERT or DAT were seeded onto poly- D-lysine (PDL) coated 96-well plates (40,000 cells well^−1) the day before an experiment. Prior to the uptake inhibition assay, DMEM was replaced with Krebs-HEPES buffer (KHB, 25 mM HEPES, 120 mM NaCl, 5 mM KCl, 1.2 mM CaCl2, 1.2 mM MgSO4, and 5 mM D-glucose, pH 7.3) and the cells were preincubated with test drugs for 5 min at room temperature. Uptake assays were initiated by adding 20 nM [^3H]MPP^+ to DAT cells or 100 nM [^3H]5-HT to SERT cells. After 180 s (DAT) or 60 s (SERT), the tritiated substrate was removed by aspiration. Cells were washed once with ice-cold KHB, then lysed in 1% sodium dodecyl sulfate (SDS) and subjected to liquid scintillation counting to quantify tritium accumulated in each sample. Non-specific uptake was determined in the presence of mazindol (1 µM) for DAT or paroxetine (1 µM) for SERT and subtracted throughout.

Experiment [2] deals with T2, human SERT (Homo sapiens, UniProt P31645).
T2 construct: expressed in transfected cells
The experiment in a line: SERT uptake inhibition assay in HEK293 cells ([3H]5-HT). It counts as cell-based. On the procedure: as §2, §3

Experiment [3] deals with T2, human SERT. The experiment in a line: [3H]5-HT release assay in HEK293 cells (superfusion). The following applies: 10 µM, SERT-expressing HEK293 cells. The experiment is classed as cell-based. The protocol: HEK293 cells stably expressing SERT were seeded onto PDL-coated glass coverslips (5 mm diameter) that were placed into 96-well plates at a density of 40,000 cells per well the day before the experiment. Cells were preloaded with [^3H]5-HT (0.4 µM, 20 min at 37 °C). Subsequently, the cells were transferred into small chambers with a total volume of 200 µl and superfused with KHB at a flow rate of 0.7 ml per min for 40 min to establish a stable baseline before the collection of 2-min fractions was initiated. For each experiment, three basal fractions were collected before the cells were exposed to various concentrations (given in the figure legends) of the test drugs for five fractions. Subsequently, the cells were superfused with 1% SDS for three final fractions that served to determine the total amount of radioactivity present within the cells at the end of each experimental run. The amount of tritium within each fraction was determined by liquid scintillation counting, and release was expressed as percentage of radioactivity released in relation to the total radioactivity present at the beginning of that fraction. Observations from superfusion experiments were excluded in case of premature exposure to SDS.

In experiment [4] the test system is C57BL/6N mice. The experiment in a line: Open-field test. It counts as in vivo. The following applies: for horizontal locomotor activity (total distance traveled) in the open field test: 1 h. On the procedure: as §1
(§4) For behavioral assays, animals were assigned to treatment groups and injected with test drugs by an unblinded observer.
Mice were placed into an open field arena (27.3 × 27.3 × 27.3 cm) surrounded by infrared beams to track movements. The total distance traveled over 1 h was recorded using Activity Monitor (Med Associates Inc., St. Albans, VT, USA) and interpreted as a measure of the psychostimulant effects. Animal sample size was confirmed using a post hoc analysis of the achieved power using G*Power3.1 [29]. Using a significance level (α) of 0.05 and an effect size f = 1.92 and a sample size of 7.5 animals (5–10)/group we achieved the commonly accepted statistical power (1−β) of 0.8.

Another experiment relates to VMATs. As to the kind of experiment: VMAT uptake inhibition assay in PC12 cells. The experiment is classed as cell-based. The following applies: all at 30 µM, relative to inhibition by 30 µM reserpine. The protocol:
VMAT uptake inhibition assays were conducted as previously described, with some modifications. In brief, […] PC12 cells per well were seeded in 24-well plates the day before experimentation. The cells were pretreated with 100 nM nisoxetine and mazindol to inhibit non-specific binding. PC12 cells were then preincubated with 200 µM digitonin to permeabilize membranes and were kept at room temperature on a plate shaker at low velocity for 30 min. Cells were treated with test drugs and shaken for another 10 min. Tritiated substrate (0.05 µM [^3H]5-HT) was added, and the cells incubated on the plate shaker for 30 min. To terminate uptake, cells were transferred into 1.5 ml Eppendorf tubes, centrifuged at 5000 rpm for 5 min. The supernatant was aspirated, cells were washed with cold KHB, recentrifuged and lysed with 200 µl SDS. The solutions were transferred into vials containing 2 ml scintillation cocktail and radioactivity was determined via beta-scintillation counting (Perkin Elmer, Waltham, MA, USA). For analysis, inhibitory potency of test drugs was normalized to uptake inhibition caused by the potent VMAT inhibitor reserpine.

Experiment [5] deals with C57BL/6N mice. As to the kind of experiment: Forced-swim test (FST). It counts as in vivo. The conditions noted are these: for immobility time in the FST versus vehicle: mice. The protocol: as §1, §4
The FST was performed as previously described. In brief, mice were placed for 6 min in a beaker (diameter: 19 cm, height: 23 cm), halfway filled with water (22–23 °C), and the immobility time was quantified using the software Videotrack (Viewpoint, Champagne au Mont d’Or, France). Immobility was defined as the absence of any movement, except for those required to keep the head above the water. The time spent immobile during the final 4 min of the test was used as a measure of behavioral despair. Animal sample size was confirmed using a post hoc analysis of the achieved power using G*Power3.1 [29]. Using a significance level (α) of 0.05 and an effect size f = 2.5 and a sample size of 6 animals/group we achieved the commonly accepted statistical power (1−β) of 0.8.

[6] abbreviates: indicated doses (1, 5 and 10 mg kg-1) intraperitoneal.

Where a name gives a salt, the structure may show the parent alone.

T1 sequence (Q01959 whole entry): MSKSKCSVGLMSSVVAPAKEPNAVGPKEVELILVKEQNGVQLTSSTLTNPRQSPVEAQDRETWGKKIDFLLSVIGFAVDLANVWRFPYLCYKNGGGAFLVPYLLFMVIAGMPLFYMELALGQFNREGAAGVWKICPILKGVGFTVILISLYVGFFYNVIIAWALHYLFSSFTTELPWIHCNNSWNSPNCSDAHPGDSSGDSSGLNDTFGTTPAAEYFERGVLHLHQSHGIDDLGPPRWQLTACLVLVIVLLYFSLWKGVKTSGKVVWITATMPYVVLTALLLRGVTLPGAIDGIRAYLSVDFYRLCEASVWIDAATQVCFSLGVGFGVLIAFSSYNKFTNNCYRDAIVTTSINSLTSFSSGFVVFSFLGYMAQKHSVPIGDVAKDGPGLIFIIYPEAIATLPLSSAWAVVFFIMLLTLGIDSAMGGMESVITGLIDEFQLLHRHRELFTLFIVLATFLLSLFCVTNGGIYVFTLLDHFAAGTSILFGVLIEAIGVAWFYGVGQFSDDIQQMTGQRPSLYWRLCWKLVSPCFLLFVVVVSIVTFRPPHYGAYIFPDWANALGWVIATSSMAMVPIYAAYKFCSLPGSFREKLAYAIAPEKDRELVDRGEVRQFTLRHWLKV
T2 sequence (P31645 whole entry): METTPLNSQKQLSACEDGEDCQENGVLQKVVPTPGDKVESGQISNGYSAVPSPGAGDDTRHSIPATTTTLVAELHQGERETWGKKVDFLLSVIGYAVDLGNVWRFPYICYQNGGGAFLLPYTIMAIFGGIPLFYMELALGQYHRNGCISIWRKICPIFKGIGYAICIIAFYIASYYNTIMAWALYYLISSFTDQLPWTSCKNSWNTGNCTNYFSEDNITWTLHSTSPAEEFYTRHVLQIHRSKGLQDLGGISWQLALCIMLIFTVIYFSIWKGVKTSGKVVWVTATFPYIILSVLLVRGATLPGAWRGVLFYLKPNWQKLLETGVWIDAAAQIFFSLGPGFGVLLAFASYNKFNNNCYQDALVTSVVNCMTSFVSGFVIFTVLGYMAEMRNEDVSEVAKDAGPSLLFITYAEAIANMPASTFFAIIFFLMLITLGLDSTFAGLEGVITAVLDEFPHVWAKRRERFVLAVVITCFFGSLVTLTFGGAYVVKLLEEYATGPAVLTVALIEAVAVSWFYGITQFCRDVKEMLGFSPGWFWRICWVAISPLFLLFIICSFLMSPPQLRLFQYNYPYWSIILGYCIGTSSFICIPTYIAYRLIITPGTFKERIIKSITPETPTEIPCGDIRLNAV

As to `CCN[C@@H](C)Cc1cccc(C(F)(F)F)c1` [D-FEN, d-fenfluramine, reference compound], the “extracellular 5-HT in the NAc (GRAB5-HT fluorescence)” value (“extracellular 5-HT in the NAc” below) in experiment [1] is “increased 5-HT when compared to saline”. The “GRAB5-HT basal fluorescence in the NAc” value in experiment [1] (3 and 10 mg kg-1 intraperitoneal) is given as “increased the basal fluorescence in a dose-dependent manner”. Further, the “relative GRAB5-HT fluorescence at peak versus saline” value in experiment [1] (t = 700-900 s post injection, drug alone, D-FEN 10, S-4-MC 5, S-4-TFMMC 10 mg kg-1 intraperitoneal) is “Significant effects”.
For `CNCCC(Oc1ccc(C(F)(F)F)cc1)c1ccccc1` (stereo not drawn) [fluoxetine, Fluoxetine hydrochloride, reference compound], the “extracellular 5-HT in the NAc” value in experiment [1] is given as “without effect”.
On to `CN[C@H](C)C(=O)c1ccccc1` [R-MC, N-methylcathinone], for which, on human DAT, the IC50 was found to be 10.6 µM and the DAT/SERT ratio was found to be 90.7. Besides, the IC50 on human SERT [2] came out at 964 µM. For the same molecule, the “effect on release of preloaded [3H]5-HT” value on human SERT [3] is “did not alter basal release of 5-HT”.
Regarding `CN[C@@H](C)C(=O)c1ccc(C)cc1` [S-4-MMC, 4-methyl-N-methylcathinone], the “vertical counts in the open field test” value in the experiment with C57BL/6N mice [4] (setting [6]) was “affected vertical counts”. The “horizontal locomotor activity (total distance traveled) in the open field test” value with C57BL/6N mice [4] (setting [6]) is recorded as “did not differ from vehicle”. The IC50 on human DAT came to 10.3 µM; on human SERT [2] it was 10.9 µM. Besides, the DAT/SERT ratio on human DAT was 1.06. In the experiment on VMATs, the “inhibition of VMAT-mediated transport compared to MDMA” value is on record as “no difference”. Moreover, the “time spent immobile in the FST, male and female mice” value in the experiment with C57BL/6N mice [5] (5 mg kg-1 intraperitoneal, male and female mice) was “significantly reduced the time spent immobile regardless of sex”. The “immobility time in the FST versus vehicle” value in the experiment on C57BL/6N mice [5] (5 mg kg-1 intraperitoneal) and with C57BL/6N mice [5] (10 mg kg-1 intraperitoneal) was “significantly reduced immobility time versus vehicle” each time. The “effect on release of preloaded [3H]5-HT” value on human SERT [3] is “robustly increased”.
For `CN[C@@H](C)C(=O)c1ccccc1` [S-MC, N-methylcathinone], at human DAT, the IC50 is 9.1 µM and the DAT/SERT ratio was 43.2. The same molecule gave an IC50 on human SERT [2] of 393 µM. Moreover, the “effect on release of preloaded [3H]5-HT” value on human SERT [3] was “little effect”.
For `CN[C@H](C)C(=O)c1ccc(C(F)(F)F)cc1` [R-4-TFMMC, 4-trifluoromethyl-N-methylcathinone], the IC50 against human DAT is 153 µM; against human SERT [2], 22.6 µM. The DAT/SERT ratio at human DAT worked out at 0.15. Moreover, the “extracellular 5-HT in the NAc” value in experiment [1] is “no effect on 5-HT was observed”. Also, the “immobility time in the FST versus vehicle” value in the experiment on C57BL/6N mice [5] (1 mg kg-1 intraperitoneal), in the experiment with C57BL/6N mice [5] (5 mg kg-1 intraperitoneal) and with C57BL/6N mice [5] (10 mg kg-1 intraperitoneal) was “had no effect” throughout. The “effect on release of preloaded [3H]5-HT” value at human SERT [3] is given as “did not alter basal release of 5-HT”.
As for `CN[C@H](C)C(=O)c1ccc(C)cc1` [R-4-MMC, 4-methyl-N-methylcathinone], the “horizontal locomotor activity (total distance traveled) in the open field test” value with C57BL/6N mice [4] (10 mg kg-1 intraperitoneal) is given as “significantly affected horizontal locomotor activity”. Besides, at human DAT, the IC50 came out at 12.5 µM and the DAT/SERT ratio is reported as 6.2. Also, half-maximal inhibition against human SERT [2] (IC50) was put at 77.1 µM. The “immobility time in the FST versus vehicle” value with C57BL/6N mice [5] (10 mg kg-1 intraperitoneal) is “significantly reduced immobility time”. The “effect on release of preloaded [3H]5-HT” value at human SERT [3] was “did not alter basal release of 5-HT”.

By IC50 is commonly meant the concentration that inhibits the measured activity by half.
